Laboratory results taken from US20260015358A1, “BICYCLIC DERIVATIVES, COMPOSITIONS AND USES THEREOF” (Danatlas Pharmaceuticals Co., Ltd., priority 2023, published 2026).

Columns and labels:
[1] = target: T1, WRN [UniPro: Q14191 (WRN_HUMAN), N500-C946] (Homo sapiens (Human), UniProt Q14191); experiment: WRN unwinding assay (FORKF DNA, fluorescence); format: biochemical; conditions: Table 14
[2] = target: T1, WRN [UniPro: Q14191 (WRN_HUMAN), N500-C946]; experiment: WRN ATPase assay (ADP-Glo); format: biochemical; conditions: WRN enzymatic activity assay

T1 sequence (Q14191 500-946): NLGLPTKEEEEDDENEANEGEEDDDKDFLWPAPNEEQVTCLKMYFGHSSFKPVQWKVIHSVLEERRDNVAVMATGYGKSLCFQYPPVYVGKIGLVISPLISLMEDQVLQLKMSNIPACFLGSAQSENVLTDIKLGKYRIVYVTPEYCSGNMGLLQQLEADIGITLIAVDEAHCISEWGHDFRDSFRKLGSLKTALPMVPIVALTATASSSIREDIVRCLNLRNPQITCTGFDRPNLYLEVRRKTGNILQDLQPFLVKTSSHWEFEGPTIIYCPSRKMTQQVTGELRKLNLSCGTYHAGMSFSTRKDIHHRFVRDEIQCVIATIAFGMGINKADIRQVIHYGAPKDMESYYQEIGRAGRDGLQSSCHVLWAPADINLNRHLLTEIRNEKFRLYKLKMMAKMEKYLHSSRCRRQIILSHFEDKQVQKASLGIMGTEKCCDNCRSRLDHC

Row | Compound | IC50 [1] [nM] | IC50 [2] [nM]
1 | CCc1c(N2CCN(C(=O)CNC(=O)C3CC3)CC2)c(=O)n2nc(C3=CCOCC3)nc2n1CC(=O)Nc1ccc(C(F)(F)F)cc1Cl [Example 165, N-(2-(4-(4-(2-((2-Chloro-4-(trifluoromethyl)phenyl)amino)-2-oxoethyl)-2-(3,6-dihydro-2H-pyran-4-yl)-5-ethyl-7-oxo-4,7-dihydro-[1,2,4]triazolo[1,5-a]pyrimidin-6-yl)piperazin-1-yl)-2-oxoethyl)cyclopropanecarboxamide] | < 100 | < 100
2 | CCc1c(N2CCN(C(=O)CNC(=O)N3CCCC3)CC2)c(=O)n2nc(C3=CCOCC3)nc2n1CC(=O)Nc1ccc(C(F)(F)F)cc1Cl [Example 166, N-(2-(4-(4-(2-((2-Chloro-4-(trifluoromethyl)phenyl)amino)-2-oxoethyl)-2-(3,6-dihydro-2H-pyran-4-yl)-5-ethyl-7-oxo-4,7-dihydro-[1,2,4]triazolo[1,5-a]pyrimidin-6-yl)piperazin-1-yl)-2-oxoethyl)pyrrolidine-1-carboxamide] | < 100 | 100 to 1000
3 | CCOC(=O)NCC(=O)N1CCN(c2c(CC)n(CC(=O)Nc3ccc(C(F)(F)F)cc3Cl)c3nc(C4=CCOCC4)nn3c2=O)CC1 [Example 167, Ethyl (2-(4-(4-(2-((2-chloro-4-(trifluoromethyl)phenyl)amino)-2-oxoethyl)-2-(3,6-dihydro-2H-pyran-4-yl)-5-ethyl-7-oxo-4,7-dihydro-[1,2,4]triazolo[1,5-a]pyrimidin-6-yl)piperazin-1-yl)-2-oxoethyl)carbamate] | < 100 | < 100
4 | CCc1c(N2CCN(C(=O)CNC(C)=O)CC2)c(=O)n2nc(C3=CCOCC3)nc2n1CC(=O)Nc1ccc(C(F)(F)F)cc1Cl [Example 168, 2-(6-(4-(Acetylglycyl)piperazin-1-yl)-2-(3,6-dihydro-2H-pyran-4-yl)-5-ethyl-7-oxo-[1,2,4]triazolo[1,5-a]pyrimidin-4(7H)-yl)-N-(2-chloro-4-(trifluoromethyl)phenyl)acetamide] | < 100 | < 100
5 | CCc1c(N2CCN(C(=O)CNC(=O)C(C)(C)C)CC2)c(=O)n2nc(C3=CCOCC3)nc2n1CC(=O)Nc1ccc(C(F)(F)F)cc1Cl [Example 169, N-(2-(4-(4-(2-((2-Chloro-4-(trifluoromethyl)phenyl)amino)-2-oxoethyl)-2-(3,6-dihydro-2H-pyran-4-yl)-5-ethyl-7-oxo-4,7-dihydro-[1,2,4]triazolo[1,5-a]pyrimidin-6-yl)piperazin-1-yl)-2-oxoethyl)pivalamide] | < 100 | 100 to 1000
6 | CCc1c(N2CCN(C(=O)CNS(C)(=O)=O)CC2)c(=O)n2nc(C3=CCOCC3)nc2n1CC(=O)Nc1ccc(C(F)(F)F)cc1Cl [Example 170, N-(2-Chloro-4-(trifluoromethyl)phenyl)-2-(2-(3,6-dihydro-2H-pyran-4-yl)-5-ethyl-6-(4-((methylsulfonyl)glycyl)piperazin-1-yl)-7-oxo-[1,2,4]triazolo[1,5-a]pyrimidin-4(7H)-yl)acetamide] | 100 to 1000 | 100 to 1000
7 | CCc1c(N2CCN(C(=O)CNS(=O)(=O)c3ccccc3)CC2)c(=O)n2nc(C3=CCOCC3)nc2n1CC(=O)Nc1ccc(C(F)(F)F)cc1Cl [Example 171, N-(2-Chloro-4-(trifluoromethyl)phenyl)-2-(2-(3,6-dihydro-2H-pyran-4-yl)-5-ethyl-7-oxo-6-(4-(2-(phenylsulfonamido)acetyl)piperazin-1-yl)-[1,2,4]triazolo[1,5-a]pyrimidin-4(7H)-yl)acetamide] | 100 to 1000 | 100 to 1000
8 | CCc1c(N2CCN(C(=O)CNC(=O)N(C)C)CC2)c(=O)n2nc(C3=CCOCC3)nc2n1CC(=O)Nc1ccc(C(F)(F)F)cc1Cl [Example 173, N-(2-Chloro-4-(trifluoromethyl)phenyl)-2-(2-(3,6-dihydro-2H-pyran-4-yl)-6-(4-((dimethylcarbamoyl)glycyl)piperazin-1-yl)-5-ethyl-7-oxo-[1,2,4]triazolo[1,5-a]pyrimidin-4(7H)-yl)acetamide] | 100 to 1000 | 100 to 1000
9 | CCc1c(N2CCN(C(=O)CNC(=O)COC)CC2)c(=O)n2nc(C3=CCOCC3)nc2n1CC(=O)Nc1ccc(C(F)(F)F)cc1Cl [Example 174, N-(2-Chloro-4-(trifluoromethyl)phenyl)-2-(2-(3,6-dihydro-2H-pyran-4-yl)-5-ethyl-6-(4-((2-methoxyacetyl)glycyl)piperazin-1-yl)-7-oxo-[1,2,4]triazolo[1,5-a]pyrimidin-4(7H)-yl)acetamide] | < 100 | < 100
10 | CCc1c(N2CCN(C(=O)CNC(=O)c3ccc(C(F)(F)F)cc3)CC2)c(=O)n2nc(C3=CCOCC3)nc2n1CC(=O)Nc1ccc(C(F)(F)F)cc1Cl [Example 176, N-(2-(4-(4-(2-((2-Chloro-4-(trifluoromethyl)phenyl)amino)-2-oxoethyl)-2-(3,6-dihydro-2H-pyran-4-yl)-5-ethyl-7-oxo-4,7-dihydro-[1,2,4]triazolo[1,5-a]Pyrimidin-6-yl)piperazin-1-yl)-2-oxoethyl)-4-(trifluoromethyl)benzamide] | 100 to 1000 | 100 to 1000
11 | CCc1c(N2CCN(C(=O)CNC(=O)Cc3ccc(F)cc3)CC2)c(=O)n2nc(C3=CCOCC3)nc2n1CC(=O)Nc1ccc(C(F)(F)F)cc1Cl [Example 177, N-(2-Chloro-4-(trifluoromethyl)phenyl)-2-(2-(3,6-dihydro-2H-pyran-4-yl)-5-ethyl-6-(4-((2-(4-fluorophenyl)acetyl)glycyl)piperazin-1-yl)-7-oxo-[1,2,4]triazolo[1,5-a]pyrimidin-4(7H)-yl)acetamide] | < 100 | < 100
12 | CCc1c(N2CCN(C(=O)CNC(=O)Nc3ccccc3)CC2)c(=O)n2nc(C3=CCOCC3)nc2n1CC(=O)Nc1ccc(C(F)(F)F)cc1Cl [Example 178, N-(2-Chloro-4-(trifluoromethyl)phenyl)-2-(2-(3,6-dihydro-2H-pyran-4-yl)-5-ethyl-7-oxo-6-(4-((phenylcarbamoyl)glycyl)piperazin-1-yl)-[1,2,4]triazolo[1,5-a]pyrimidin-4 (7H)-yl)acetamide] | < 100 | < 100
13 | CCc1c(N2CCN(C(=O)CNC(=O)Nc3cc(F)cc(F)c3)CC2)c(=O)n2nc(C3=CCOCC3)nc2n1CC(=O)Nc1ccc(C(F)(F)F)cc1Cl [Example 179, N-(2-Chloro-4-(trifluoromethyl)phenyl)-2-(6-(4-(((3,5-difluorophenyl)carbamoyl)glycyl)piperazin-1-yl)-2-(3,6-dihydro-2H-pyran-4-yl)-5-ethyl-7-oxo-[1,2,4]triazolo[1,5-a]pyrimidin-4(7H)-yl)acetamide] | < 100 | < 100
14 | CCc1c(N2CCN(C(=O)CNC(=O)Nc3ccccc3F)CC2)c(=O)n2nc(C3=CCOCC3)nc2n1CC(=O)Nc1ccc(C(F)(F)F)cc1Cl [Example 180, N-(2-Chloro-4-(trifluoromethyl)phenyl)-2-(2-(3,6-dihydro-2H-pyran-4-yl)-5-ethyl-6-(4-(((2-fluorophenyl)carbamoyl)glycyl)piperazin-1-yl)-7-oxo-[1,2,4]triazolo[1,5-a]pyrimidin-4(7H)-yl)acetamide] | < 100 | < 100
15 | CCc1c(N2CCN(C(=O)CNC(=O)Nc3ccccc3Cl)CC2)c(=O)n2nc(C3=CCOCC3)nc2n1CC(=O)Nc1ccc(C(F)(F)F)cc1Cl [Example 181, N-(2-Chloro-4-(trifluoromethyl)phenyl)-2-(6-(4-(((2-chlorophenyl)carbamoyl)glycyl)piperazin-1-yl)-2-(3,6-dihydro-2H-pyran-4-yl)-5-ethyl-7-oxo-[1,2,4]triazolo[1,5-a]pyrimidin-4(7H)-yl)acetamide] | < 100 | < 100
16 | CCc1c(N2CCN(C(=O)CNC(=O)N3CCc4ccccc43)CC2)c(=O)n2nc(C3=CCOCC3)nc2n1CC(=O)Nc1ccc(C(F)(F)F)cc1Cl [Example 182, N-(2-(4-(4-(2-((2-Chloro-4-(trifluoromethyl)phenyl)amino)-2-oxoethyl)-2-(3,6-dihydro-2H-pyran-4-yl)-5-ethyl-7-oxo-4,7-dihydro-[1,2,4]triazolo[1,5-a]pyrimidin-6-yl)piperazin-1-yl)-2-oxoethyl) indoline-1-carboxamide] | < 100 | < 100
17 | CCc1c(N2CCN(C(=O)CNC(=O)NCc3ccccc3)CC2)c(=O)n2nc(C3=CCOCC3)nc2n1CC(=O)Nc1ccc(C(F)(F)F)cc1Cl [Example 183, 2-(6-(4-((Benzylcarbamoyl)glycyl)piperazin-1-yl)-2-(3,6-dihydro-2H-pyran-4-yl)-5-ethyl-7-oxo-[1,2,4]triazolo[1,5-a]pyrimidin-4(7H)-yl)-N-(2-chloro-4-(trifluoromethyl)phenyl)acetamide] | < 100 | < 100
18 | CCc1c(N2CCN(C(=O)CNC(=O)NC3CC3)CC2)c(=O)n2nc(C3=CCOCC3)nc2n1CC(=O)Nc1ccc(C(F)(F)F)cc1Cl [Example 184, N-(2-Chloro-4-(trifluoromethyl)phenyl)-2-(6-(4-((cyclopropylcarbamoyl)glycyl)piperazin-1-yl)-2-(3,6-dihydro-2H-pyran-4-yl)-5-ethyl-7-oxo-[1,2,4]triazolo[1,5-a]pyrimidin-4(7H)-yl)acetamide] | < 100 | < 100
19 | CCc1c(N2CCN(C(=O)CNC(=O)N3Cc4ccccc4C3)CC2)c(=O)n2nc(C3=CCOCC3)nc2n1CC(=O)Nc1ccc(C(F)(F)F)cc1Cl [Example 185, N-(2-(4-(4-(2-((2-Chloro-4-(trifluoromethyl)phenyl)amino)-2-oxoethyl)-2-(3,6-dihydro-2H-pyran-4-yl)-5-ethyl-7-oxo-4,7-dihydro-[1,2,4]triazolo[1,5-a]pyrimidin-6-yl)piperazin-1-yl)-2-oxoethyl)isoindoline-2-carboxamide] | < 100 | < 100
20 | CCc1c(N2CCN(C(=O)CNC(=O)Nc3cc(F)ccc3F)CC2)c(=O)n2nc(C3=CCOCC3)nc2n1CC(=O)Nc1ccc(C(F)(F)F)cc1Cl [Example 186, N-(2-Chloro-4-(trifluoromethyl)phenyl)-2-(6-(4-(((2,5-difluorophenyl)carbamoyl)glycyl)piperazin-1-yl)-2-(3,6-dihydro-2H-pyran-4-yl)-5-ethyl-7-oxo-[1,2,4]triazolo[1,5-a]pyrimidin-4(7H)-yl)acetamide] | < 100 | < 100
